Measurements as given in paper PMC10504751, “Chalcone/1,3,4-Oxadiazole/Benzimidazole hybrids as novel anti-proliferative agents inducing apoptosis and inhibiting EGFR & BRAFV^600E” (BMC Chemistry, 2023).
Read-outs that look alike come from different tables or passages of the source.

How the values were obtained:
Test in all cases: NCI one-dose SRB anti-proliferative screen
Assay type in all cases: cell-based
MALME-3M = details: Homo sapiens, read-out: Cell growth inhibition %
How it was run: (§1)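 10 µM test compound → cell exposure → SRB staining → colorimetric measurement of growth.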

LOX IMVI = details: Homo sapiens; for inhibition at 10 µM: read-out: Cell growth inhibition %
How it was run: as §1

PC-3 = details: Homo sapiens, read-out: Cell growth inhibition %
How it was run: as §1

OVCAR-4 = details: Homo sapiens, read-out: Cell growth inhibition %
How it was run: as §1

UO-31 = details: Homo sapiens, read-out: Cell growth inhibition %
How it was run: as §1

ACHN = details: Homo sapiens, read-out: Cell growth inhibition %
How it was run: as §1

HCT-15 = details: Homo sapiens, read-out: Cell growth inhibition %
How it was run: as §1

U251 = details: Homo sapiens, U-251, read-out: Cell growth inhibition %
How it was run: as §1

M14 = details: Homo sapiens, read-out: Cell growth inhibition %
How it was run: as §1

UACC-62 = details: Homo sapiens, read-out: Cell growth inhibition %
How it was run: as §1

A498 = details: Homo sapiens, read-out: Cell growth inhibition %
How it was run: as §1

A549/ATCC = details: Homo sapiens, read-out: Cell growth inhibition %
How it was run: as §1

786-0 = details: Homo sapiens, read-out: Cell growth inhibition %
How it was run: as §1

NCI-H226 = details: Homo sapiens, read-out: Cell growth inhibition %
How it was run: as §1

NCI-H522 = details: Homo sapiens, read-out: Cell growth inhibition %
How it was run: as §1

MDA-MB-435 = details: Homo sapiens, read-out: Cell growth inhibition %
How it was run: as §1

SK-MEL-2 = details: Homo sapiens, read-out: Cell growth inhibition %
How it was run: as §1

NCI/ADR-RES = details: Homo sapiens, read-out: Cell growth inhibition %
How it was run: as §1

NCI-H23 = details: Homo sapiens, read-out: Cell growth inhibition %
How it was run: as §1

HL-60(TB) = details: Homo sapiens, read-out: Cell growth inhibition %
How it was run: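 Activity reflects a single-point exposure at 10 µM, with cell mass determined by a sulforhodamine B dye assay.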

TK-10 = details: Homo sapiens, read-out: Cell growth inhibition %
How it was run: as §1

OVCAR-8 = details: Homo sapiens, read-out: Cell growth inhibition %
How it was run: as §1

OVCAR-3 = details: Homo sapiens, read-out: Cell growth inhibition %
How it was run: as §1

MDA-MB-231/ATCC = details: Homo sapiens, read-out: Cell growth inhibition %
How it was run: as §1

SK-MEL-28 = details: Homo sapiens, read-out: Cell growth inhibition %
How it was run: as §1

BT-549 = details: Homo sapiens, read-out: Cell growth inhibition %
How it was run: as §1

OVCAR-5 = details: Homo sapiens, read-out: Cell growth inhibition %
How it was run: as §1

NCI-H322M = details: Homo sapiens, read-out: Cell growth inhibition %
How it was run: as §1

SN12C = details: Homo sapiens, read-out: Cell growth inhibition %
How it was run: as §1

SR = details: Homo sapiens, read-out: Cell growth inhibition %
How it was run: as §1

SF-539 = details: Homo sapiens, read-out: Cell growth inhibition %
How it was run: as §1

`COc1cc(-c2nc3cc(-c4nnc(SCC(=O)Nc5ccc(C(=O)/C=C/c6ccc(Cl)cc6)cc5)o4)ccc3[nH]2)cc(OC)c1OC` [Compound 7v, 2-{5-[2-(3,4,5-Trimethoxyphenyl)-1 H-benzo[d]imidazol-5-yl]-1,3,4-oxadiazol-2-ylthio}-N-{4-[(E)-3-(4-chlorophenyl)acryloyl]phenyl}acetamide] was tested, and the inhibition at 10 µM (MALME-3M; MALME-3M (Melanoma), NCI one dose 10 µM) was 0%, the inhibition at 10 µM (LOX IMVI; LOX IMIV (Melanoma), NCI one dose 10 µM) was 132% and the inhibition at 10 µM (PC-3; PC-3 (Prostate Cancer), NCI one dose 10 µM) was 4.91%. The inhibition at 10 µM (OVCAR-4; OVCAR-4 (Ovarian Cancer), NCI one dose 10 µM) was 0%, the inhibition at 10 µM (UO-31; UO-31 (Renal Cancer), NCI one dose 10 µM) was 16% and the inhibition at 10 µM (ACHN; ACHN (Renal Cancer), NCI one dose 10 µM) was 3.22%. It also gave an inhibition at 10 µM (HCT-15; HCT-15 (Colon Cancer), NCI one dose 10 µM) of 13.1%, an inhibition at 10 µM (U251; U251 (CNS Cancer), NCI one dose 10 µM) of 22.4% and an inhibition at 10 µM (M14; M14 (Melanoma), NCI one dose 10 µM) of 0%. The inhibition at 10 µM (UACC-62; UACC-62 (Melanoma), NCI one dose 10 µM) was 16%, the inhibition at 10 µM (A498; A498 (Renal Cancer), NCI one dose 10 µM) was 16.8% and the inhibition at 10 µM (A549/ATCC; A549/ATCC (Non-Small Cell Lung Cancer), NCI one dose 10 µM) was 0%. For the same molecule, the inhibition at 10 µM (786-0; 786-0 (Renal Cancer), NCI one dose 10 µM) was 9.2%, the inhibition at 10 µM (NCI-H226; NCI-H226 (Non-Small Cell Lung Cancer), NCI one dose 10 µM) was 8.31% and the inhibition at 10 µM (NCI-H522; NCI-H522 (Non-Small Cell Lung Cancer), NCI one dose 10 µM) was 7.4%. It also gave an inhibition at 10 µM (MDA-MB-435; MDA-MB-435 (Melanoma), NCI one dose 10 µM) of 1.02%, an inhibition at 10 µM (SK-MEL-2; SK-MEL-2 (Melanoma), NCI one dose 10 µM) of 0% and an inhibition at 10 µM (NCI/ADR-RES; NCI/ADR-RES (Ovarian Cancer), NCI one dose 10 µM) of 0%. The inhibition at 10 µM (NCI-H23; NCI-H23 (Non-Small Cell Lung Cancer), NCI one dose 10 µM) was 0%, the inhibition at 10 µM (HL-60(TB); HL-60(TB) (Leukemia), NCI one dose 10 µM) was 7.46% and the inhibition at 10 µM (TK-10; TK-10 (Renal Cancer), NCI one dose 10 µM) was 0%. The inhibition at 10 µM (OVCAR-8; OVCAR-8 (Ovarian Cancer), NCI one dose 10 µM) was 7.52%, the inhibition at 10 µM (OVCAR-3; OVCAR-3 (Ovarian Cancer), NCI one dose 10 µM) was 2.13% and the inhibition at 10 µM (MDA-MB-231/ATCC; MDA-MB-231/ATCC (Breast Cancer), NCI one dose 10 µM) was 8.4%. It also gave an inhibition at 10 µM (SK-MEL-28; SK-MEL-28 (Melanoma), NCI one dose 10 µM) of 0%, an inhibition at 10 µM (BT-549; BT-549 (Breast Cancer), NCI one dose 10 µM) of 15.6% and an inhibition at 10 µM (OVCAR-5; OVCAR-5 (Ovarian Cancer), NCI one dose 10 µM) of 0.76%. For the same molecule, the inhibition at 10 µM (NCI-H322M; NCI-H322M (Non-Small Cell Lung Cancer), NCI one dose 10 µM) was 3.77%, the inhibition at 10 µM (SN12C; SN 12C (Renal Cancer), NCI one dose 10 µM) was 9.61% and the inhibition at 10 µM (SR; SR (Leukemia), NCI one dose 10 µM) was 39.6%. It also gave an inhibition at 10 µM (SF-539; SF-539 (CNS Cancer), NCI one dose 10 µM) of 25.3%.
Work on `COc1ccc(-c2nc3cc(-c4nnc(SCC(=O)Nc5ccc(C(=O)/C=C/c6ccccc6)cc5)o4)ccc3[nH]2)cc1` [Compound 7k, 2-{5-[2-(4-Methoxyphenyl)-1 H-benzo[d]imidazol-5-yl]-1,3,4-oxadiazol-2-ylthio}-N-{4-[(E)-3-phenylacryloyl]phenyl}acetamide] yielded an inhibition at 10 µM (MALME-3M; MALME-3M, Melanoma, NCI one dose) of 26.6%, an activity at 10 µM (LOX IMVI; LOX IMVI (Melanoma), 10 µM one dose, read-out: Growth Percent) of 14.9% and an inhibition at 10 µM (LOX IMVI; Melanoma, NCI one dose) of 85.1%. The inhibition at 10 µM (PC-3; PC-3, Prostate Cancer, NCI one dose) was 22.4%, the inhibition at 10 µM (OVCAR-4; OVCAR-4, Ovarian Cancer, NCI one dose) was 19.1% and the inhibition at 10 µM (UO-31; UO-31, Renal cancer, NCI one dose) was 33.8%. The inhibition at 10 µM (ACHN; ACHN, Renal cancer, NCI one dose) was 7.59%, the inhibition at 10 µM (HCT-15; HCT-15, Colon cancer, NCI one dose) was 23.5% and the inhibition at 10 µM (U251; U251, CNS Cancer, NCI one dose) was 33.2%. It also gave an inhibition at 10 µM (M14; M14, Melanoma, NCI one dose) of 12.9%, an inhibition at 10 µM (UACC-62; UACC-62, Melanoma, NCI one dose) of 20.1% and an inhibition at 10 µM (A498; A498, Renal cancer, NCI one dose) of 19.9%. For the same molecule, the inhibition at 10 µM (A549/ATCC; A549/ATCC, Non-Small Cell Lung Cancer, NCI one dose) was 5.82%, the inhibition at 10 µM (786-0; 786-0, Renal cancer, NCI one dose) was 41.2% and the inhibition at 10 µM (NCI-H226; NCI-H226, Non-Small Cell Lung Cancer, NCI one dose) was 35.4%. For the same molecule, the inhibition at 10 µM (NCI-H522; NCI-H522, Non-Small Cell Lung Cancer, NCI one dose) was 17.3%, the inhibition at 10 µM (MDA-MB-435; MDA-MB-435, Melanoma, NCI one dose) was 33.6% and the inhibition at 10 µM (SK-MEL-2; SK-MEL-2, Melanoma, NCI one dose) was 0%. The inhibition at 10 µM (NCI/ADR-RES; NCI/ADR-RES, Ovarian Cancer, NCI one dose) was 10.3%, the inhibition at 10 µM (NCI-H23; NCI-H23, Non-Small Cell Lung Cancer, NCI one dose) was 16.9% and the inhibition at 10 µM (HL-60(TB); HL-60(TB), Leukemia, NCI one dose) was 28.7%. It also gave an inhibition at 10 µM (TK-10; TK-10, Renal cancer, NCI one dose) of 0%, an inhibition at 10 µM (OVCAR-8; OVCAR-8, Ovarian Cancer, NCI one dose) of 28.2% and an inhibition at 10 µM (OVCAR-3; OVCAR-3, Ovarian Cancer, NCI one dose) of 0%. For the same molecule, the inhibition at 10 µM (MDA-MB-231/ATCC; MDA-MB-231/ATCC, Breast cancer, NCI one dose) was 22.5%, the inhibition at 10 µM (SK-MEL-28; SK-MEL-28, Melanoma, NCI one dose) was 11.4% and the inhibition at 10 µM (BT-549; BT-549, Breast cancer, NCI one dose) was 38.1%. The inhibition at 10 µM (OVCAR-5; OVCAR-5, Ovarian Cancer, NCI one dose) was 0%, the inhibition at 10 µM (NCI-H322M; NCI-H322M, Non-Small Cell Lung Cancer, NCI one dose) was 0% and the inhibition at 10 µM (SN12C; SN 12C, Renal cancer, NCI one dose) was 15.2%. It also gave an inhibition at 10 µM (SR; SR, Leukemia, NCI one dose) of 51.6% and an inhibition at 10 µM (SF-539; SF-539, CNS Cancer, NCI one dose) of 27.5%.
